For experiment [1], the system named is SK-BR-3. As to the kind of experiment: Cytotoxicity against human SKBR3 cells assessed as decrease in cell viability at 1 uM after 72 hrs in presence of GPER agonist E2 by MTS assay. Format: functional, cell-based.
Experiment [2] addresses Estrogen receptor beta (Homo sapiens) (UniProt Q92731). As to the kind of experiment: Displacement of fluoromone from recombinant human full length untagged estrogen receptor beta expressed in insect cells at.
Another experiment concerns HL-60. As to the kind of experiment: Decrease in cAMP accumulation in human HL60 cells harboring GPER siRNA at 100 nM after 48 hrs by HTRF assay. Format: functional, cell-based. A general note: cAMP levels reflect the balance of adenylyl cyclase and phosphodiesterase activity.
The target in experiment [3] is T1, Estrogen receptor (Homo sapiens) (UniProt P03372).
T1 sequence (whole entry): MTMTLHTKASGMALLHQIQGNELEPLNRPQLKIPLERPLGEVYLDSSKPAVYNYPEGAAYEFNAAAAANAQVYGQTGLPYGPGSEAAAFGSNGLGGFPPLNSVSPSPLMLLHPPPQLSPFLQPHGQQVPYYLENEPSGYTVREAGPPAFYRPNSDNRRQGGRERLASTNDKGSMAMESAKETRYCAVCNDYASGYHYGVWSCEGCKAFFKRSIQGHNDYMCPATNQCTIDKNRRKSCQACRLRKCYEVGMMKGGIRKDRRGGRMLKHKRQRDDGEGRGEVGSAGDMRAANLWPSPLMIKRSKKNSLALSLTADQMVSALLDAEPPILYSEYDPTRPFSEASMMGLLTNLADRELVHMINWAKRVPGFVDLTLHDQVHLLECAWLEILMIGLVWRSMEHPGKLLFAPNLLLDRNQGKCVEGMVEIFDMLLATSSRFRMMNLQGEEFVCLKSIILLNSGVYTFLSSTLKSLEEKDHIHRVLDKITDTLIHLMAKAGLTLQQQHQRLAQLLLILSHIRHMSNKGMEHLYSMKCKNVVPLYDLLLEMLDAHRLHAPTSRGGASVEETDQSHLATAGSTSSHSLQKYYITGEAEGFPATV
The experiment in a line: Displacement of fluoromone from recombinant human full length untagged estrogen receptor alpha expressed in insect cells at.

Experiment [4] addresses Estrogen receptor beta (Homo sapiens) (UniProt Q92731). As to the kind of experiment: Displacement of fluoromone from recombinant human full length untagged estrogen receptor beta expressed in insect cells after 2 hrs by fluorescence polarization assay.
Experiment [5] concerns SK-BR-3. The experiment in a line: Cytotoxicity against human SKBR3 cells assessed as decrease in cell viability at 1 uM after 72 hrs in absence of GPER agonist E2 by MTS assay. Format: functional, cell-based. For orientation: Tetrazolium dyes change colour on reduction, which living cells bring about.
Experiment [6] deals with MDA-MB-231. As to the kind of experiment: Cytotoxicity against human MDA-MB-231 cells assessed as decrease in cell viability at 1 uM after 72 hrs in absence of GPER agonist E2 by MTS assay. The class given is functional, cell-based.
Experiment [7] deals with T2, G-protein coupled estrogen receptor 1 (Homo sapiens, UniProt Q99527). The experiment in a line: Agonist activity at GPER (unknown origin) expressed in human HL60 cells assessed as increase in cAMP accumulation in presence of IBMX after 15 mins by HTRF assay. The class given is functional, cell-based.
Experiment [8] has as its system MDA-MB-231. As to the kind of experiment: Cytotoxicity against human MDA-MB-231 cells assessed as decrease in cell viability at 1 uM after 72 hrs in presence of GPER agonist E2 by MTS assay. The class given is functional, cell-based.
For a further experiment, the system named is MCF7. As to the kind of experiment: Cytotoxicity against human MCF7 cells assessed as decrease in cell viability at 1 uM after 72 hrs in presence of GPER agonist E2 by MTS assay. Format: functional, cell-based.
The target in experiment [9] is T1, Estrogen receptor (Homo sapiens). As to the kind of experiment: Displacement of fluoromone from recombinant human full length untagged estrogen receptor alpha expressed in insect cells at 1 uM after 2 hrs by fluorescence polarization assay.
For experiment [10], the target named is Estrogen receptor beta (Homo sapiens) (UniProt Q92731). As to the kind of experiment: Displacement of fluoromone from recombinant human full length untagged estrogen receptor beta expressed in insect cells at 1 uM after 2 hrs by fluorescence polarization assay. A general note: In fluorescence polarisation assays a small probe gives low polarisation when free and higher when bound to something large.

Experiment [11] concerns the target T2, G-protein coupled estrogen receptor 1. The experiment in a line: Antagonist activity at GPER (unknown origin) expressed in human HL60 cells assessed as inhibition of G-1-induced cAMP accumulation preincubated for 20 mins followed by G-1 addition measured after 10 mins by HTRF assay. Format: functional, cell-based.

From ChEMBL document CHEMBL4196232, “A Series of Indole-Thiazole Derivatives Act as GPER Agonists and Inhibit Breast Cancer Cell Growth” (ACS Med Chem Lett, 2018) come the findings set out here.

In general, pEC50 refers to the EC50 on a negative log10 scale, so that one unit is a factor of ten.

pEC50: −log10 of the molar value. Calls of active or inactive are those of the source. The calls are words filed in the database; no cut-off is given here.

Estrogen receptor beta (Homo sapiens), sequence (Q92731 whole entry): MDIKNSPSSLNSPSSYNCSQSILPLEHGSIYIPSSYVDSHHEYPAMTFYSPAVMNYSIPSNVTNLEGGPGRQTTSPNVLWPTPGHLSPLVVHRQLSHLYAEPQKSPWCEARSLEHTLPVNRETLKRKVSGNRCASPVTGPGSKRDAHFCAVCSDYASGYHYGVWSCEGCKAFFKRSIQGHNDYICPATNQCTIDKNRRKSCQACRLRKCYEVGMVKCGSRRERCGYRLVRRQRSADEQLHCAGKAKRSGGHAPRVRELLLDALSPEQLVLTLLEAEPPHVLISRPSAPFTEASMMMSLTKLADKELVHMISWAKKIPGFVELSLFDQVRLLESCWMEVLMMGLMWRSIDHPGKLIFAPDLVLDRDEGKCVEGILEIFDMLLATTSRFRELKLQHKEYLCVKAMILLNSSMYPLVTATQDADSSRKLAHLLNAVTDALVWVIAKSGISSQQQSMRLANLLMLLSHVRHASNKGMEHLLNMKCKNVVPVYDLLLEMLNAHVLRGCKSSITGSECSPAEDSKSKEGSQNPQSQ
T2 sequence (Q99527 whole entry): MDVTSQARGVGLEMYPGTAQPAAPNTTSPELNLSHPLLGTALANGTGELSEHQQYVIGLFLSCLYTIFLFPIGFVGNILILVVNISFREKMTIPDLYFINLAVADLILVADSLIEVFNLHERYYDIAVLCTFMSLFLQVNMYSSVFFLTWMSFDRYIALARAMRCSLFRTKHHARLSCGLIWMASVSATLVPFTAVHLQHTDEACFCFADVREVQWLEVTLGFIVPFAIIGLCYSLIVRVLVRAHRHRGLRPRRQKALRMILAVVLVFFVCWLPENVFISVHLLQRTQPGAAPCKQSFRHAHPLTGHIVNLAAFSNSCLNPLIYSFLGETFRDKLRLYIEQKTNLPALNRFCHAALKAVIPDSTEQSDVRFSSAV

In the case of `O=C(Nc1ncc(Cc2ccc(F)cc2F)s1)c1[nH]c2ccccc2c1Cl`, the outcome in the experiment on SK-BR-3 [1], in the experiment on SK-BR-3 [5], in the experiment on MDA-MB-231 [6], with MDA-MB-231 [8] and with MCF7 was Active. The outcome (in [2]; in the experiment with HL-60; in [3]; in experiment [4]) was inactive. For the same molecule, the pEC50 in experiment [7] is 5.79.

Regarding `CCc1nc(NC(=O)c2[nH]c3ccc(Br)cc3c2Cl)sc1C`, the outcome (in the experiment on SK-BR-3 [1]; in experiment [2]; in experiment [3]; in the experiment with SK-BR-3 [5]; in the experiment with MDA-MB-231 [6]; with MDA-MB-231 [8]) was inactive. Besides, the outcome (in experiment [9]; in experiment [10]; with MCF7) was Active. Moreover, the pEC50 in [7] is 6.32.

On to `Brc1cc2c(cc1[C@@H]1Nc3ccccc3[C@@H]3C=CC[C@@H]31)OCO2`, for which the outcome in the experiment with MDA-MB-231 [6] and in the experiment on MDA-MB-231 [8] was inactive. The outcome in the experiment with MCF7 was Active.

Take `COc1cc(OC)c2[nH]c(C(=O)Nc3ncc(Cc4ccccc4)s3)cc2c1`: the inhibition result in experiment [11] is “inactive”.

In the case of `CC(=O)c1ccc2c(c1)[C@@H]1C=CC[C@@H]1[C@H](c1cc3c(cc1Br)OCO3)N2`, the result in the experiment with SK-BR-3 [1], with SK-BR-3 [5], in the experiment with MDA-MB-231 [6], in the experiment on MDA-MB-231 [8] and in the experiment on MCF7 was Active. For the same molecule, the outcome (with HL-60; in [4]) was inactive.

As to `O=C(Nc1nc2c(s1)CCC2)c1cc2cc(F)ccc2[nH]1`, the inhibition result in experiment [11] was “inactive”. The outcome in [7] was inactive.

In the case of `CSc1ncc(Cl)c(C(=O)Nc2ncc(Cc3ccc(F)cc3)s2)n1`, the inhibition entry in experiment [11] is “inactive”.

Regarding `O=C(Nc1nc2c(s1)CCC2)c1cc2cc(Br)ccc2[nH]1`, the inhibition entry in experiment [11] is “inactive”. Also, the result in experiment [7] was inactive.

For the molecule `CC(C)c1csc(NC(=O)c2cc3c(Cl)cccc3[nH]2)n1`, in experiment [11], the inhibition result is “inactive”. Besides, in experiment [7], the outcome was inactive.

Regarding `N#Cc1ccc(Cc2cnc(NC(=O)c3cc4cc(F)ccc4[nH]3)s2)cc1`, the inhibition entry in experiment [11] is “inactive”.

With `O=C(Nc1ncc(Cc2ccc(F)cc2)s1)c1cc2cc(F)ccc2[nH]1`, the result in the experiment on SK-BR-3 [1], in the experiment on SK-BR-3 [5], in the experiment with MDA-MB-231 [6] and in the experiment with MDA-MB-231 [8] was inactive. The inhibition entry in [11] is “inactive”. For the same molecule, the outcome in experiment [9] and in experiment [10] was Active. In addition, in experiment [7], the pEC50 is 7.70.
